Results on 3 molecules are retold here after patent US6071954A, “(methylsulfonyl)phenyl-2-(5H)-furanones with oxygen link as COX-2 inhibitors” (Merk Frosst Canada, Inc., priority 1998, dated 2000).

The test system of one assay is Rat Paw Edema. The assay can be described thus: Rat paw edema assay (carrageenan). The following applies: po, 1 hr before carrageenan, paw volume 3 hr later. The format is in vivo, rat (male Sprague-Dawley). How it is done: Male Sprague-Dawley rats (150-200 g) are fasted overnight and are given, po, either vehicle (1% methocel or 5% Tween 80) or a test compound. One hr later, a line is drawn using a permanent marker at the level above the ankle in one hind paw to define the area of the paw to be monitored. The paw volume (V0) is measured using a plethysmometer (Ugo-Basile, Italy) based on the principle of water displacement. The animals are then injected subplantarly with […] of 1% carrageenan solution in saline (FMC Corp, Maine) into the paw using an insulin syringe with a 25-gauge needle (i.e. […] carrageenan per paw). Three hr later, the paw volume (V3) is measured and the increases in paw volume (V3 -V0) are calculated. The animals are sacrificed by CO2 asphyxiation and the absence or presence of stomach lesions scored. Data is compared with the vehicle-control values and percent inhibition calculated. All treatment groups are coded to eliminate observer bias.
(In the carrageenan paw model, swelling and tenderness develop within hours.)

Assay [1] addresses T1, COX-2 (Homo sapiens, UniProt P35354).
T1 sequence (P35354 18-604): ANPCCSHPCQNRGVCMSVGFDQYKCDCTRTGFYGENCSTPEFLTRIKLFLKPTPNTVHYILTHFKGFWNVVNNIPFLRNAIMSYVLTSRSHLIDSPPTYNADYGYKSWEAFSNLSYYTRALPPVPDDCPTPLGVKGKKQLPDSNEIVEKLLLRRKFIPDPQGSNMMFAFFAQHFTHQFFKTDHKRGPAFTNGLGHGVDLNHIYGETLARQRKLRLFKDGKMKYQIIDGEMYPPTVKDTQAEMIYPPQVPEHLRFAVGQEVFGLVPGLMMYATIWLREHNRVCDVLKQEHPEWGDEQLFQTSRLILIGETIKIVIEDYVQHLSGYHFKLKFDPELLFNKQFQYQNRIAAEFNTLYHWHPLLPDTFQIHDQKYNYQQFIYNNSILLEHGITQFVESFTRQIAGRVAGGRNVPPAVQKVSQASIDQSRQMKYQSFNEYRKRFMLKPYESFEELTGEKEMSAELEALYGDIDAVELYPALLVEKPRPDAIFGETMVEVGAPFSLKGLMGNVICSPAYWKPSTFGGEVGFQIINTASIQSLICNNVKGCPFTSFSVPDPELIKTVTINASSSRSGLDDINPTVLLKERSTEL
The assay can be described thus: Whole cell assay for COX-2 using CHO transfected cell lines (CHO[hCOX-2]). The format is cell-based. On the set-up: expressed in transfected cells; CHO[hCOX-2]. The note with it: CHO[hCOX-2] cells, PGE2 synthesis in response to arachidonic acid. The method, then: Compounds are tested as inhibitors of cyclooxygenase activity in whole cell cyclooxygenase assays. These assays measure prostaglandin E2 synthesis in response to arachidonic acid, using a radioimmunoassay. Cells used for these assays are chinese hamster ovary (CHO) cell lines which have been stably transfected with an eukaryotic expression vector […] containing either the human Cox-1 or Cox-2 CDNA's. U937 cell microsomes are also used to measure Cox-1 activity.
Chinese hamster ovary (CHO) cell lines which have been stably transfected with an eukaryotic expression vector pCDNAIII containing either the human COX-1 or COX-2 cDNA's are used for the assay. These cell lines are referred to as CHO [hCOX-1] and CHO [hCOX-2], respectively. […] Drugs to be tested are dissolved in DMSO to 66.7-fold the highest test drug concentration. […] Cells (0.3×10^6 cells in 200 μl) are preincubated with 3 μl of the test drug or DMSO vehicle for 15 min at 37° C.
In the assay, inhibition is determined by measuring the amount of prostaglandin E2 (PGE2) synthesized in the presence of arachidonic acid, cyclooxygenase-1 or cyclooxygenase-2 and a putative inhibitor.

Assay [2] concerns the target T1, COX-2. The assay can be described thus: Human whole blood assay, COX-2 (LPS-induced PGE2 production). The note with it: LPS-induced PGE2, 24 hours at 37° C, read-out: COX-2 (IC50) HWB. The arrangement: incubation of human whole blood with LPS, which induces COX-2; endogenous in cells; host or cells: fresh heparinized whole blood of human volunteers, LPS-stimulated. The format is cell-based. The text has this: As well, platelets in whole blood contain a large amount of the COX-1 enzyme. Immediately following blood clotting, platelets are activated through a thrombin-mediated mechanism. This reaction results in the production of thromboxane B2 (TxB2) via activation of COX-1. Thus, the effect of test compounds on TxB2 levels following blood clotting can be examined and used as an index for COX-1 activity. Therefore, the degree of selectivity by the test compound can be determined by measuring the levels of PGE2 after LPS induction (COX-2) and TxB2 following blood clotting (COX-1) in the same assay. A. COX-2 (LPS-induced PGE2 production) Fresh blood is collected in heparinized tubes by venipuncture from both male and female volunteers. The subjects have no apparent inflammatory conditions and have not taken any NSAIDs for at least 7 days prior to blood collection. Plasma is immediately obtained from a 2 mL blood aliquot to use as blank (basal levels of PGE2). […] The supernatant is obtained and is assayed for PGE2 using a radioimmunoassay kit (Amersham, RPA#530) after conversion of PGE2 to its methyl oximate derivative according to the manufacturer's procedure.

Turning to `CC1(C)OC(=O)C(OC2CCC(F)(F)CC2)=C1c1ccc(S(C)(=O)=O)cc1` [Example 17], the ED50 (usually the dose at which the effect has come halfway, by size or by number of responders) in the assay with Rat Paw Edema worked out at 0.9 mg/kg.

With `CC1(C)OC(=O)C(OC(C(F)(F)F)C(F)(F)F)=C1c1ccc(S(C)(=O)=O)cc1` [Example 2, 5,5-Dimethyl-3-(1,1,1,3,3,3-hexafluoropropoxy)-4-(4-methylsulfonylphenyl)-5H-furan-2-one], the ED50 in the assay on Rat Paw Edema amounted to 1 mg/kg.

Consider `C[C@H](O)[C@@H](C)OC1=C(c2ccc(S(C)(=O)=O)cc2)C(C)(C)OC1=O` (relative stereo) [Example 4], for which the values for the half-maximal inhibitory concentration (IC50) against COX-2 [1] and on COX-2 [2] were 600 nM and 900 nM, respectively.
